Source: patent US12398111B2, “Triazine compounds and pharmaceutical use thereof” (Japan Tobacco Inc., priority 2014, dated 2025)

Experiments:
human mPGES-1 = target: T1, human mPGES-1 (Homo sapiens, UniProt O14684); assay: Evaluation of human mPGES-1 enzyme inhibitory activity (PGE2 measured by HTRF, microsome fraction of CHO-S cells expressing human mPGES-1); assay type: biochemical; details: IC50 value; microsome fraction of CHO-S cells expressing human mPGES-1, PGE2 by HTRF
T1 construct: made in house; host or cells: FreeStyle CHO-S cells (Chinese hamster ovary), transient transfection with pcDNA3.1(+)/human mPGES-1; microsome fraction used
T1 sequence (O14684 1-152): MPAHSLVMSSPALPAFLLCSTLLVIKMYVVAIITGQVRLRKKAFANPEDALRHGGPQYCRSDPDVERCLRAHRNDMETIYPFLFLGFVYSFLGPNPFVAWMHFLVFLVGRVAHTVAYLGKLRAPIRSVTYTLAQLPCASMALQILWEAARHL
Method in brief: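 Enzyme source: microsomes from CHO-S cells transfected with human mPGES-1 and cultured 48 hr, diluted to 5 μg/mL protein in reduced GSH (12.5 mmol/L KPB solution). Test articles were in 0.1 mol/L potassium phosphate pH 7.4, final DMSO 2% (v/v). PGE2 formed was quantified by HTRF.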

[1] = test system: prostaglandins in guinea pig secondary aqueous humor; assay: Effect on prostaglandin composition in guinea pig aqueous humor (instillation of 0.003% ophthalmic solution, LC/MS/MS); assay type: in vivo, Hartley male guinea pig; details: 24 hr after instillation of 0.003% ophthalmic solution
Procedure: A test article was dissolved in saline containing 0.5% polysorbate80 (Fluka) and 0.003% ophthalmic solution (pH 7.0-8.0) was prepared. The test article was administered to Hartley male guinea pig by instillation of 20 μL thereof to one eye by using a micropipette. After instillation, the lacrimal part was lightly fixed by gently pressing the lower eyelid for about 15 seconds. The opposite eye was treated in the same manner. To the vehicle group was administered the medium (0.5% polysorbate-containing saline) by a method similar to that for the test article. After 23 hr from the instillation, Mydrin P (registered trade mark) 0.5% ophthalmic solution (Santen Pharmaceutical Co., Ltd., general name: tropicamide/phenylephrine hydrochloride) was dropwisely added by one drop to the both eyes of a guinea pig to cause mydriasis. The guinea pig was anesthetized with Escain (registered trade mark) inhalation anesthetics (Pfizer Inc., general name: isoflurane), the cornea of the both eyes was tapped with a 30G injection needle, and the leaked aqueous humor (primary aqueous humor) was collected. One hour later (24 hr after instillation), the guinea pig was anesthetized again with isoflurane, and the secondary aqueous humor was collected in the same manner. The concentration of prostaglandins in the secondary aqueous humor obtained from each group (4 guinea pigs, 8 eyes) was measured by the LC/MS/MS system (Ultra high performance liquid chromatography: Nexera (registered trademark) manufactured by Shimadzu Corporation, mass spectrometer: […]), and the concentration ratio of each prostaglandin concentration relative to the total of all prostaglandin concentrations was calculated.

Structure (SMILES)	IC50 (human mPGES-1) [nM]	6-keto-PGF1α (%) [1] [%]	PGD2 (%) [1] [%]	PGE2 (%) [1] [%]	PGF2α (%) [1] [%]	TXB2 (%) [1] [%]
CC(C)Cc1ccc(-c2nc(O)nc(-c3cc(CNC(=O)C(C)(C)C)ccc3Cl)n2)cc1 [Example 1-51, N-{4-chloro-3-[4-(4-isobutylphenyl)-6-hydroxy-1,3,5-triazin-2-yl]benzyl}-2,2-dimethylpropionamide]	1	21.7	13.2	50.7	14	0.4
Cc1ccc(-c2nc(O)nc(-c3cc(CNC(=O)C(C)(C)C(F)(F)F)ccc3Cl)n2)cc1F [Example 1-81, N-{4-chloro-3-[4-(3-fluoro-4-methylphenyl)-6-hydroxy-1,3,5-triazin-2-yl]benzyl}-3,3,3-trifluoro-2,2-dimethylpropionamide]	0.6	15.7	13.2	60	9.8	1.3
CC(C)c1ccc(-c2nc(O)nc(-c3cc(CNC(=O)C(C)(C)C(F)(F)F)ccc3Cl)n2)cc1 [Example 1-98, N-{4-chloro-3-[4-hydroxy-6-(4-isopropylphenyl)-1,3,5-triazin-2-yl]benzyl}-3,3,3-trifluoro-2,2-dimethylpropionamide]	0.9	31.2	16.3	38	14.2	0.3
CC(C)COc1ccc(-c2nc(O)nc(-c3cc(CNC(=O)C(C)(C)C(F)(F)F)ccc3Cl)n2)cc1 [Example 1-109, N-{4-chloro-3-[4-hydroxy-6-(4-isobutoxyphenyl)-1,3,5-triazin-2-yl]benzyl}-3,3,3-trifluoro-2,2-dimethylpropionamide]	2.5	37.5	18.9	29.5	14.1	0.1
CCCOc1ccc(-c2nc(O)nc(-c3cc(CNC(=O)C(C)(C)C(F)(F)F)ccc3Cl)n2)cc1 [Example 1-122, N-{4-chloro-3-[4-hydroxy-6-(4-propoxyphenyl)-1,3,5-triazin-2-yl]benzyl}-3,3,3-trifluoro-2,2-dimethylpropionamide]	1.3	27.7	23	37.3	11.7	0.2
CC1(COc2ccc(-c3nc(O)nc(-c4cc(CNC(=O)C(C)(C)C(F)(F)F)ccc4Cl)n3)cc2)CC1 [Example 1-128, N-(4-chloro-3-{4-hydroxy-6-[4-(1-methylcyclopropylmethoxy)phenyl]-1,3,5-triazin-2-yl}benzyl)-3,3,3-trifluoro-2,2-dimethylpropionamide]	1.3	29.7	19.3	36.2	13.9	0.8
Cc1ccc(-c2nc(O)nc(-c3cc(CNC(=O)C(C)(C)C(F)(F)F)ccc3Cl)n2)cc1Cl [Example 1-129, N-{4-chloro-3-[4-(3-chloro-4-methylphenyl)-6-hydroxy-1,3,5-triazin-2-yl]benzyl}-3,3,3-trifluoro-2,2-dimethylpropionamide]	0.6	18.1	9.2	62.5	10.2	0
CC(C)c1cc(-c2nc(O)nc(-c3cc(CNC(=O)C(C)(C)C(F)(F)F)ccc3Cl)n2)ccc1C(F)(F)F [Example 1-130, N-{4-chloro-3-[4-hydroxy-6-(3-isopropyl-4-trifluoromethylphenyl)-1,3,5-triazin-2-yl]benzyl}-3,3,3-trifluoro-2,2-dimethylpropionamide]	9	11.2	6.2	73.6	8	1
CCCCOc1ccc(-c2nc(O)nc(-c3cc(CNC(=O)C(C)(C)C(F)(F)F)ccc3Cl)n2)cc1 [Example 1-131, N-{3-[4-(4-butoxyphenyl)-6-hydroxy-1,3,5-triazin-2-yl]-4-chlorobenzyl}-3,3,3-trifluoro-2,2-dimethylpropionamide]	0.9	27.9	18.8	42.9	9.8	0.6
CC(C)(C(=O)NCc1ccc(Cl)c(-c2nc(O)nc(-c3ccc(F)c(C4CC4)c3)n2)c1)C(F)(F)F [Example 1-135, N-{4-chloro-3-[4-(3-cyclopropyl-4-fluorophenyl)-6-hydroxy-1,3,5-triazin-2-yl]benzyl}-3,3,3-trifluoro-2,2-dimethylpropionamide]	0.5	19.4	10.9	56.1	12.7	0.9
CO[C@](C)(C(=O)NCc1ccc(Cl)c(-c2nc(O)nc(-c3ccc(Cl)c(C)c3)n2)c1)C(F)(F)F [Example 1-136, (R)—N-{4-chloro-3-[4-(4-chloro-3-methylphenyl)-6-hydroxy-1,3,5-triazin-2-yl]benzyl}-3,3,3-trifluoro-2-methoxy-2-methylpropionamide]	0.5	17.3	7.4	66.7	7.9	0.7
CCCOc1ccc(-c2nc(O)nc(-c3cc(CNC(=O)[C@@](C)(OC)C(F)(F)F)ccc3Cl)n2)cc1 [Example 1-137, (R)—N-{4-chloro-3-[4-hydroxy-6-(4-propoxyphenyl)-1,3,5-triazin-2-yl]benzyl}-3,3,3-trifluoro-2-methoxy-2-methylpropionamide]	0.5	24.8	14.1	49.5	11.3	0.3
Cc1ccc(-c2nc(O)nc(-c3cc(CNC(=O)C(C)(C)C(F)(F)F)ccc3Cl)n2)cc1C [Example 1-150, N-{4-chloro-3-[4-(3,4-dimethylphenyl)-6-hydroxy-1,3,5-triazin-2-yl]benzyl}-3,3,3-trifluoro-2,2-dimethylpropionamide]	0.4	14	8	69	8.9	0.2
CC(C(=O)NCc1ccc(Cl)c(-c2nc(O)nc(-c3ccc(OCC4CC4)cc3)n2)c1)(C(F)(F)F)C(F)(F)F [Example 1-169, N-{4-chloro-3-[4-(4-cyclopropylmethoxyphenyl)-6-hydroxy-1,3,5-triazin-2-yl]benzyl}-3,3,3-trifluoro-2-methyl-2-trifluoromethylpropionamide]	2	40.3	17	28.7	13.5	0.5
CC(C)COc1ccc(-c2nc(O)nc(-c3cc(CNC(=O)C4(C(F)(F)F)CC4)ccc3Cl)n2)cc1 [Example 1-178, 1-trifluoromethylcyclopropanecarboxylic acid 4-chloro-3-[4-hydroxy-6-(4-isobutoxyphenyl)-1,3,5-triazin-2-yl]benzylamide]	1.4	36.6	20.1	30	13	0.3
C[C@H](Oc1ccc(-c2nc(O)nc(-c3cc(CNC(=O)C(C)(C)C(F)(F)F)ccc3Cl)n2)cc1)C1CC1 [Example 1-184, N-(4-chloro-3-{4-[4-((S)-1-cyclopropylethoxy)phenyl]-6-hydroxy-1,3,5-triazin-2-yl}benzyl)-3,3,3-trifluoro-2,2-dimethylpropionamide]	1.9	21.2	10.7	57	10.3	0.8

The next lines start with results.

IC50 (human mPGES-1) [nM]	Structure (SMILES)	6-keto-PGF1α (%) [1] [%]	PGD2 (%) [1] [%]	PGE2 (%) [1] [%]	PGF2α (%) [1] [%]	TXB2 (%) [1] [%]
1.2	Cc1c(CNC(=O)C(C)(C)C(F)(F)F)ccc(Cl)c1-c1nc(O)nc(-c2ccc(OCC(C)C)cc2)n1 [Example 3-18]	–	–	–	–	–
24600	Cc1cc(Cl)c(-c2nc(O)nc(-c3ccc(OCC4CC4)cc3)n2)cc1C(=O)O [Example 3-19]	–	–	–	–	–
1100	Cc1cc(Cl)c(-c2nc(O)nc(-c3ccc(OCC4CC4)cc3)n2)cc1C(N)=O [Example 3-20]	–	–	–	–	–
611	CNC(=O)c1cc(-c2nc(O)nc(-c3ccc(OCC4CC4)cc3)n2)c(Cl)cc1C [Example 3-21]	–	–	–	–	–
6900	Cc1cc(Cl)c(-c2nc(O)nc(-c3ccc(OCC4CC4)cc3)n2)cc1C(=O)N(C)C [Example 3-22]	–	–	–	–	–
41	CCCCNC(=O)c1cc(-c2nc(O)nc(-c3ccc(OCC4CC4)cc3)n2)c(Cl)cc1C [Example 3-23]	–	–	–	–	–
